Measurements as given in patent US20120183614A1, “POLYPHENOL COMPOUND ABSORPTION PROMOTER AND UTILIZATION OF SAME” (priority 2009, published 2012).

Assays:
Caco-2 cells = assay: In vitro EGCG absorption measurement system, Caco-2 cell monolayer on Transwell (Papp of EGCG, chorionic to serosal side)
Procedure: An orally-ingested polyphenol compound, in particular, catechin compound is considered to be absorbed mainly in the intestinal tract, especially the small intestine in the body. […]
The Caco-2 cells were cultured in the presence of humidified air containing 5% CO2 in a Dulbecco's modified Eagle medium (DMEM, pH 7.4; manufactured by GIBCO) containing 10% inactivated fetal bovine serum (manufactured by HyClone), 50 U/mL penicillin-50 μg/mL streptomycin (manufactured by GIBCO), and a 1% non-essential amino acid (manufactured by GIBCO) in a plastic flask of 75 cm^2. The cells were maintained by performing subculture every 5 to 8 days when the cells reached 80 to 90% confluence. An EGCG absorption experiment to be described below was performed using Caco-2 cells which had been subcultured 30 to 70 times.
The EGCG absorption experiment was performed using a Caco-2 cell monolayer cultured on a Transwell with a diameter of 12 mm (polycarbonate filter culture area: 1.13 cm^2, pore size: 0.4 μm; manufactured by Corning). […] Transepithelial electrical resistance (hereinafter, referred to as “TEER”) was measured using a Millicell ERS meter (manufactured by Millipore) to monitor the degree of completion of a tight junction of the cell monolayer, and a monolayer which had been confirmed that formation of the tight junction had been completed was used in the experiment. […]

Caco-2 cell monolayer = assay: Transepithelial electrical resistance (TEER) of the Caco-2 cell monolayer; assay type: cell-based, human; settings: EGCG reagent added at different concentrations to the chorionic side, 3-hour measurement period
Procedure: The EGCG absorption experiment was performed using a Caco-2 cell monolayer cultured on a Transwell with a diameter of 12 mm (polycarbonate filter culture area: 1.13 cm^2, pore size: 0.4 μm; manufactured by Corning). The Caco-2 cells were inoculated onto an insert of the Transwell at a density of 1.0×10^5 cells/cm^2, and culture was continued while the medium was exchanged for a fresh one every 2 days. Transepithelial electrical resistance (hereinafter, referred to as “TEER”) was measured using a Millicell ERS meter (manufactured by Millipore) to monitor the degree of completion of a tight junction of the cell monolayer, and a monolayer which had been confirmed that formation of the tight junction had been completed was used in the experiment. […]
The medium of the upper part of the Transwell insert on which the Caco-2 cell monolayer was placed (chorionic side) was replaced by a Hanks' Balanced Salt Solution-like Transport Medium having a pH of 5.5 (chorionic side HBSS solution; containing 10 mM MES, 5 mM glucose, 10 mM glutamine, and 1 mM ascorbic acid), and the medium of the lower part of the insert (serosal side) was replaced by HBSS having a pH of 7.4 (serosal side HBSS solution; containing […], 5 mM glucose, 10 mM glutamine, and 1 mM ascorbic acid). […] The cells were incubated for 30 minutes, and TEER was measured again. […]

[1] = EGCG in rat plasma after oral administration of green tea extract solution with serine and malic acid (Test Example 4); assay type: in vivo, rats; settings: rat plasma after administration solutions (i) to (iv)
Procedure: The final EGCG concentration derived from the green tea extract contained in each administration solution was adjusted to 1 mM. […] During the recuperation period, the rats were fed individually in cages equipped with floor nets and allowed to ingest CE-2 feed (manufactured by CLEA Japan, Inc.) freely. […] The EGCG concentration in plasma was measured as follows: […] Isocratic elution was performed at a sample injection volume to the column of 20 μL using 0.1% phosphoric acid containing 0.1 mM EDTA·2Na:acetonitrile=90:10 as the mobile phase at a flow rate of 0.4 mL/min. […] The retention time of the EGCG standard substance was 8.0 minutes, and the detection sensitivity was 2 nM. The EGCG concentrations in actual administration solutions were also analyzed again, and it was confirmed that EGCG was administered to the rats in scheduled amounts. Rat plasma collected after administration of each of the administration solutions (i), (ii), (iii), and (iv) was treated and subjected to HPLC analysis as mentioned above. […] In other words, it was considered that most of EGCG in blood was absorbed in blood as an unconjugated free body.

[2] = EGCG absorbability in rats, mixed administration solutions (Test Example 8); assay type: in vivo; settings: oral, 1 mM EGCG, Fisher's PLSD
Excerpt: The reason why the significant differences are found in EGCG absorbability between the Camellia sinensis (L.) O. Kuntze extracts and the usual green tea extracts although both are extracts obtained by the same hot-water extraction procedures is probably that substances contained in the extracts differ from each other. That is, the green tea extracts may contain an ingredient which inhibits EGCG absorption, or the Camellia sinensis (L.) O. Kuntze extracts may contain an ingredient which promotes EGCG absorption. In order to gain the chance of investigation of the possibility, an experiment shown in this test example was performed. Specifically, a Camellia sinensis (L.) O. Kuntze extract solution, a usual green tea extract solution, and an EGCG reagent solution were prepared so as to have the same EGCG concentration, and solutions obtained by mixing the solutions in appropriate combination were administered to rats to investigate changes in EGCG absorbability. […] In the same manner as in Test Example 7, the administration solutions were orally administered forcibly to rats mounted with a cannula in the vein, and EGCG concentrations in plasma obtained by blood collection performed with time after administration were measured and converted into areas under curve to compare amounts of EGCG remaining in blood. […]

[3] = Stability of EGCG in the chorionic side HBSS solution; assay type: physicochemical; settings: chorionic side HBSS solution with 1 mM ascorbic acid, pH 5.5
Procedure: In addition, the EGCG absorption capacity of the Caco-2 cells was maintained constantly for 4 hours or more by adding 10 mM glutamine to the HBSS solutions of the chorionic side and serosal side in the measurement system.

[4] = EGCG absorbability in rats, Camellia sinensis (L.) O. Kuntze extracts versus green tea extracts (Test Example 7); assay type: in vivo; settings: rat plasma
Excerpt: For Camellia sinensis (L.) O. Kuntze extracts (Camellia sinensis (L.) O. Kuntze tea hot water extract manufactured by ASAHI SOFT DRINKS CO., Ltd.; lot 1 [i], lot 2 [ii], and lot 3 [iii]) and green tea extracts (green tea hot water extract manufactured by San-Ei Gen F.F.I., Inc.; lot 4 [iv] and lot 5 [v]), absorbability of EGCG by rats were compared. […] During the recuperation period, the rats were fed individually in cages equipped with floor nets and allowed to ingest CE-2 feed (manufactured by CLEA Japan, Inc.) freely. The numbers of samples of the administration solutions are as follows: [i] Camellia sinensis (L.) O. Kuntze extract lot 1-administered group: n=7; [ii] Camellia sinensis (L.) O. Kuntze extract lot 2-administered group: n=7; [iii] Camellia sinensis (L.) O. Kuntze extract lot 3-administered group: n=6; [iv] green tea extract lot 4-administered group:n=5; and [v] green tea extract lot 5-administered group: n=4. […] The EGCG concentration in plasma was measured in the same manner as in Test Example 4. […] Isocratic elution was performed at a sample injection volume to the column of 20 μL using 0.1% phosphoric acid containing 0.1 mM EDTA·2Na:acetonitrile=90:10 as the mobile phase at a flow rate of 0.4 mL/min. […] The EGCG concentrations in actual administration solutions were also analyzed again, and it was confirmed that EGCG was administered to the rats in scheduled amounts. […]

[5] = Catechin compounds in human plasma after Camellia sinensis (L.) O. Kuntze extract with sodium malate (Test Example 9); assay type: in vivo; settings: humans, 135 mg with Camellia sinensis (L.) O. Kuntze extract (195 mg catechin compounds), oral; total of five catechin compounds
Procedure: The effect of malic acid on absorption of a catechin compound in humans was examined. Five healthy men and women which were 20 years old or more and less than 65 years old were selected as test subjects, and a test was performed on the effect of increasing the amount of the catechin compound remaining in blood by ingesting sodium malate simultaneously with the Camellia sinensis (L.) O. Kuntze extract. […]
The test was performed by a crossover test as described below. […] In the same manner as in Test Example 4, concentrations of the catechin compounds in plasma were measured by the HPLC-ECD method (electrochemical detection method). […] As the second phase, concentrations of the catechin compounds in plasma were measured under the same conditions as those in the first phase except that each subject ingested the control substance. It should be noted that the concentrations of the catechin compounds were determined as a total concentration of five kinds of catechin compounds including EGCG, 3″-O-methylepigallocatechin gallate, epigallocatechin, epicatechin gallate, and epicatechin.

Structure (SMILES): O=C(O[C@@H]1Cc2c(O)cc(O)cc2O[C@@H]1c1cc(O)c(O)c(O)c1)c1cc(O)c(O)c(O)c1 [EGCG, epigallocatechin gallate]
- EGCG absorbed in the form of a conjugate (deconjugation treatment of EGCG permeated to the serosal side) (Caco-2 cells): no EGCG absorbed in the form of a conjugate
- TEER during the measurement period (Caco-2 cell monolayer): maintained well
- Change in EGCG concentration in plasma before and after deconjugation treatments with β-glucuronidase and sulfatase [1]: no changes
- Difference in mean values, EGCG concentrations in plasma × time (areas under curve) ([2]; labelled solution vs [ii] EGCG reagent + green tea extract): 0.0052
- Difference in mean values, EGCG concentrations in plasma × time (areas under curve) ([2]; labelled solution vs [iii] Camellia sinensis (L.) O. Kuntze extract + green tea extract): 0.0009
- Stability of EGCG during the absorption experiment period [3]: maintained completely and stably
- Change in EGCG concentrations in plasma before and after the deconjugation treatment with β-glucuronidase and sulfatase [4]: not changed

Structure (SMILES): O=C([O-])CC(O)C(=O)[O-].[Na+].[Na+] (centres unmarked) [sodium malate]
- AUC0→4h of total catechins in plasma relative to ingestion of no sodium malate [5]: 1.6 times
